According to article PMC6455008, “Methylation at the C-3′ in D-Ring of Strigolactone Analogs Reduces Biological Activity in Root Parasitic Plants and Rice” (Frontiers in Plant Science, 2019):
Where two headings read alike, the source gives them in different places.

Columns and labels:
P. aegyptiaca seeds = test: Parasitic seed germination bioassay, Phelipanche; type: in vivo, Phelipanche aegyptiaca; settings: for EC50: Phelipanche aegyptiaca; for P. aegyptiaca germination rate: non-formulated, 1.0 μM, 1 week at 25°C
Experimental: Germination activity of SL analogs on S. hermonthica and P. aegyptiaca seeds was tested by following the procedure described before ([Jamil et al., 2012]). The preconditioned Striga and Phelipanche seeds were treated with 50 μl of each SL analog solution at a concentration range (10^−5–10^−12 M). GR24 and sterile MilliQ water were included as positive and negative controls, respectively. The treated seeds were allowed to germinate in the dark for 24 h at 30°C (for Striga) and for 1 week at 25°C (for Phelipanche). The germinated and non-germinated seeds were counted under a binocular microscope, and germination rate (in %) was calculated.
Collected data were analyzed statistically using statistical software package R (version 3.2.2).

Striga seeds = test: Stability of formulated SL analogs in aqueous solution under storage (Striga germination readout); type: physicochemical, Striga hermonthica; settings: 1.0 μM
Experimental: The stability of formulated SL analogs was further tested in sand culture. About 1.5 ml of silver sand was added in each of 6 wells of 24-well plates. Then, 800 μl of formulated SL analogs (1.0 μM) was added in each of the six wells. The plates were sealed firmly with para-film, wrapped in aluminum foil, and placed at 30°C from day 1 to day 7. After 7 days, glass fiber discs containing preconditioned Striga seeds were placed on the top of each of the six wells and incubated in the dark at 30°C for 24 h. The germinated and non-germinated seeds were counted from each disc. In addition, the viability of formulated SL analogs was also tested in aqueous solution for 7 weeks at 30°C. About 800-μl aqueous solution of formulated SL analogs (1.0 μM) was added in a black Eppendorf tube weekly up to 6 weeks and incubated at 30°C. On the seventh week, about 50 μl of each analog was applied on a glass fiber disc containing preconditioned Striga seed and put again in the dark in sealed petri plates at 30°C for 24 h. Germinated and non-germinated seeds were counted from each disc.

OsD14 = molecular target: T1, OsD14 (Oryza sativa subsp. japonica, UniProt Q10QA5); test: In vitro YLG hydrolysis competition assay, OsD14; type: biochemical
T1 construct: made in house
T1 sequence (Q10QA5 1-318): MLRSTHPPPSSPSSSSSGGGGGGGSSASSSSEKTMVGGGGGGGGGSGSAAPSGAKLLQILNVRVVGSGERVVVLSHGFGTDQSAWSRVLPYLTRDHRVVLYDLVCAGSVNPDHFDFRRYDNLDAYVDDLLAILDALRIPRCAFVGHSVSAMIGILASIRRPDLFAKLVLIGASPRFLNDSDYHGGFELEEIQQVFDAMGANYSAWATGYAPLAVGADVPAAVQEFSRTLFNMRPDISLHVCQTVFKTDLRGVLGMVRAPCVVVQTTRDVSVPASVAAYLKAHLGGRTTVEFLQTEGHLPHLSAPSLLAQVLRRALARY
Experimental: Protein expression and purification of ShHTL7 and Oryza sativa D14 (OsD14) was carried out according to the procedure described earlier ([Jamil et al., 2018]). In vitro Yoshimulactone Green (YLG) hydrolysis assays ([Tsuchiya et al., 2015]) were carried out using 3.0 μM of protein ShHTL7 and OsD14 in a reaction buffer (1X PBS buffer, pH 7.3) with 0.1% DMSO at a 100-μl volume on a 96-well black plate (Greiner). For competitive assays, rac-GR24, AR8, MP13, and MP26 (at range between 0.01 and 50 μM) were co-incubated with 1.0 μM of YLG (Tokyo Chemical Industry Co. Ltd., product number E1238) for 60 min at room temperature. Fluorescent intensity was measured by spectraMax i5 (Molecular Devices) at excitation by 480 nm and detection by 520 nm. The change in fluorescence observed over the course of 1 h of YLG in buffer without protein was subtracted from the data collected in presence of protein. IC50 values were calculated by GraphPad (Prism 7).

Striga hermonthica = test: Striga emergence in pots under greenhouse conditions (suicidal germination, rice host); type: in vivo; settings: formulated 1.0 μM; for Striga emergence at 10 WAS / decrease in Striga emergence compared to mock at 10 WAS: 10 weeks after sowing; for Striga hermonthica emergence, 5 WAS / Striga hermonthica emergence, 6 WAS / Striga hermonthica emergence, 7 WAS / Striga hermonthica emergence, 8 WAS / Striga hermonthica emergence, 9 WAS / Striga hermonthica emergence, 10 WAS: mean ± SE; for Striga hermonthica emergence, 5 WAS: n=5, 5 weeks after sowing; for Striga hermonthica emergence, 6 WAS: n=5, 6 weeks after sowing; for Striga hermonthica emergence, 7 WAS: n=5, 7 weeks after sowing; for Striga hermonthica emergence, 8 WAS: n=5, 8 weeks after sowing; for Striga hermonthica emergence, 9 WAS: n=5, 9 weeks after sowing; for Striga hermonthica emergence, 10 WAS: n=5, 10 weeks after sowing; for percent decrease in Striga hermonthica emergence over mock, 8 WAS / percent decrease in Striga hermonthica emergence over mock, 9 WAS / percent decrease in Striga hermonthica emergence over mock, 10 WAS: negative = decrease
Experimental: About 10 mg of (ca 4,000) Striga seeds were thoroughly mixed in 2 L of sand and soil mixture (1:1) and added in 3-L perforated plastic pot containing 0.5 L of clean soil in the bottom. Striga seeds were first preconditioned by giving light irrigation and putting pots at 35°C in greenhouse for 10 days. Each pot was sprayed with 20-ml (1.0 μM) formulated SL analogs up to 10 days at 2-day intervals. A light irrigation was given next day of each application to move the compound to Striga seeds and they were allowed to germinate for suicidal death without host for another 1 week. Then, three rice seedlings (5 days old) were planted in the middle of each pot. The rice plants were grown under normal growth condition (30°C, 70% RH) for 8 weeks. Number of emerged Striga plants in each pot were counted.

Striga = Striga emergence after formulated MP13 in naturally infested farmer's field (pearl millet host); type: in vivo
Experimental: A naturally Striga-infested farmer’s field was selected near Kouaré research station ([…], 0°30′W) (Fada N’Gourma, Burkina Faso) to test suicidal activity of formulated MP13, taking formulated water treatment as control treatment. After onset of few rains, the field was thoroughly prepared by subsequent ploughing and planking. The experiment was laid out in a randomized complete block design with four plots or replications. Each plot consisted of two 3-m-long mounds and spaced with one mound between rows. Formulated MP13 and normal water (control) were applied twice in each plot (25 ml m^−2) following rains (~10 mm) to get a final concentration of 0.5 μM. Local pearl millet crop was sown at least 1 week after the second application. Data on the number of emerged Striga plants at three counting dates were collected in both fields on a plot basis. The three Striga counts were then used to calculate the average number of emerged Striga plants throughout the season.

[1] = read-out: EC50 P. aegyptiaca seed germination, formulated
[2] = read-out: EC50 P. aegyptiaca seed germination, non-formulated

Row | SMILES | EC50 (P. aegyptiaca seeds; [1]) [nM] | EC50 (P. aegyptiaca seeds; [2]) [nM] | P. aegyptiaca germination rate (P. aegyptiaca seeds) | Striga germination rate after 1 week's storage (Striga seeds; 30°C) | IC50 (OsD14) [nM] | Striga emergence at 10 WAS (Striga hermonthica) | decrease in Striga emergence compared to mock at 10 WAS (Striga hermonthica) | Striga hermonthica emergence, 5 WAS (Striga hermonthica) | Striga hermonthica emergence, 6 WAS (Striga hermonthica) | Striga hermonthica emergence, 7 WAS (Striga hermonthica) | Striga hermonthica emergence, 8 WAS (Striga hermonthica) | Striga hermonthica emergence, 9 WAS (Striga hermonthica) | Striga hermonthica emergence, 10 WAS (Striga hermonthica) | percent decrease in Striga hermonthica emergence over mock, 8 WAS (Striga hermonthica) [%] | percent decrease in Striga hermonthica emergence over mock, 9 WAS (Striga hermonthica) [%] | percent decrease in Striga hermonthica emergence over mock, 10 WAS (Striga hermonthica) [%] | Striga germination rate before storage (Striga seeds) [%] | further results
1 | CC1=C(C)C(O/C=C(\C)C=O)OC1=O (centres unmarked) [AR8, reference compound] | 320 | 970 | 32% | total loss of activity | 4870 ± 780 | 11 plants per pot | around 18% | 0.4±0.2 | 4.4±0.5 | 7.2±1.5 | 10.6±1.5 | 10.8±1.5 | 10.6±1.5 | -4 | -11 | -18 |  | 
2 | CC1=CC(O/C=C(\C)C=O)OC1=O (centres unmarked) [MP13, (E)-2-methyl-3-[(4-methyl-5-oxo-2,5-dihydrofuran-2-yl)oxy]acrylaldehyde] | 250 | 32 | around 68% | 9% | 3450 ± 1200 | six | 52% | 0.0±0.0 | 1.6±1.0 | 2.6±0.6 | 4.8±0.6 | 5.8±0.6 | 6.2±0.7 | -56 | -51 | -52 | 53 | Striga germination activity after 2 weeks of storage (Striga seeds; 30°C, 2 weeks): not detectable; Striga emergence (No. per plot), change vs control (Striga; formulated MP13, 0.5 μM, printed in Figure 8E): -41%; Striga plants counted at the end of the season (Striga; formulated MP13 applied twice, final conc. 0.5 μM, pearl millet, mock field 154): 91 plants m^−2
3 | COC(=O)/C=C/C(C)=C/OC1C=C(C)C(=O)O1 (centres unmarked) [MP26, (2E,4E)-methyl 4-methyl-5-(4-methyl-5-oxo-2,5-dihydrofuran-2-yloxy)penta-2,4-dienoate] | 99 | 520 | around 68% |  | 2070 ± 800 | four | 69% | 0.0±0.0 | 0.8±0.6 | 1.4±0.4 | 2.6±0.4 | 3.6±0.8 | 4.0±0.9 | -76 | -68 | -69 | 69 | Striga germination rate after 6 weeks of storage (Striga seeds; 30°C, 6 weeks): 4%
